Molecular target: T1, Recombinant human HSD17B13 enzyme (Homo sapiens, UniProt Q7Z5P4)
T1 sequence (Q7Z5P4 20-300): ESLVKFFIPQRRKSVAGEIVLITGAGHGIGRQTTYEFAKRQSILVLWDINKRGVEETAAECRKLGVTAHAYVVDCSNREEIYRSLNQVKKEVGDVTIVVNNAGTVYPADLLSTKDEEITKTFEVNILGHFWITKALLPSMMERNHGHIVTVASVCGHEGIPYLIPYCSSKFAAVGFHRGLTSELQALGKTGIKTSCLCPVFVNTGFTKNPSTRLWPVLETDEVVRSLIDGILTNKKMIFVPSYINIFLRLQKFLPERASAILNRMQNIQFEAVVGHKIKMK
Assay: HSD17b13 NAD(P)H-Glo biochemical assay
Conditions: 50 uM estradiol, 1 mM NAD+, NAD(P)H-Glo luminescence; read-out: HSD17β13 IC50
Outline: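 Recombinant human HSD17B13 in 20 mM Tris pH7.4 with 0.002% Tween-20 and 0.02% BSA was preincubated with inhibitor for 20 minutes at RT. The reaction ran 3 hours at 37° C with 50 uM estradiol and 1 mM NAD+ (final). NADH formed was detected by NAD(P)H-Glo luminescence after 1 hour at RT.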

SMILES | IC50 [nM]
CCOC1CCN(c2ncc3c(-c4cc(C(F)(F)F)c(F)c(O)c4F)nn(C)c3n2)CC1 [Compound 18.70, 3-(6-(4-Ethoxypiperidin-1-y1)-1-methyl-1H-pyrazolo[3,4-d]pyrimidin-3-y1)-2,6-difluoro-5-(trifluoromethyl)phenol] | < 100
Cn1nc(-c2cc(C(F)(F)F)c(F)c(O)c2F)c2cnc(N3CCOC(CO)C3)cc21 (stereo not shown) [Compound 9.97, 2,6-Difluoro-3-(6-(2-(hydroxymethyl)morpholino)-1-methyl-1H-pyrazolo[4,3-c]pyridin-3-yl)-5-(trifluoromethyl)phenol] | 100 to 1000
Cn1nc(-c2cc(C(F)(F)F)c(F)c(O)c2F)c2ncc(N3CCOCC34CC4)cc21 [Compound 9.119, 2,6-Difluoro-3-(1-methyl-6-(7-oxa-4-azaspiro[2.5]octan-4-yl)-1H-pyrazolo[4,3-b]pyridin-3-yl)-5-(trifluoromethyl)phenol] | < 100
Cn1nc(-c2cc(C(F)(F)F)c(F)c(O)c2F)c2cnc(N3C4CCC3COC4)cc21 [Compound 9.20, 3-(6-(3-Oxa-8-azabicyclo [3.2.1]octan-8-yl)-1-methyl-1H-pyrazolo[4,3-c]pyridin-3-yl)-2,6-difluoro-5-(trifluoromethyl)phenol] | < 100
Cn1nc(-c2cc(C(F)(F)F)c(F)c(O)c2F)c2cnc(N3CCN(C(=O)CN4CCOCC4)CC3)nc21 [Compound 18.126, 1-(4-(3-(2,4-Difluoro-3-hydroxy-5-(trifluoromethyl)phenyl)-1-methyl-1H-pyrazolo[3,4-d]pyrimidin-6-y1)piperazin-1-yl)-2-morpholinoethan-1-one] | 100 to 1000
Cn1nc(-c2cc(C(F)(F)F)c(F)c(O)c2F)c2cnc(N3CCOC4(CC4)C3)nc21 [Compound 18.105, 2,6-Difluoro-3-(1-methyl-6-(4-oxa-7-azaspiro[2.5]octan-7-y1)-1H-pyrazolo[3,4-d]pyrimidin-3-y1)-5-(trifluoromethyl)phenol] | < 100
Cn1nc(-c2cc(C(F)(F)F)c(F)c(O)c2F)c2cnc(N3CCOCC3C3CCOCC3)cc21 (stereo not shown) [Compound 9.76, 2,6-Difluoro-3-(1-methyl-6-(3-(tetrahydro-2H-pyran-4-yl)morpholino)-1H-pyrazolo[4,3-c]pyridin-3-yl)-5-(trifluoromethyl)phenol] | < 100
CC(=O)N1CCC(N(C)c2ncc3c(-c4cc(C(F)(F)F)c(F)c(O)c4F)nn(C)c3n2)CC1 [Compound 19.01, 1-(4-((3-(2,4-Difluoro-3-hydroxy-5-(trifluoromethyl)phenyl)-1-methyl-1H-pyrazolo[3,4-d]pyrimidin-6-y1)(methyl)amino)piperidin-1-yl)ethan-1-one] | < 100
Cn1nc(-c2cc(C(F)(F)F)c(F)c(O)c2F)c2cnc(N3CCOCC3C3CCC3)cc21 (stereo not shown) [Compound 9.67, 3-(6-(3-Cyclobutylmorpholino)-1-methyl-1H-pyrazolo[4,3-c]pyridin-3-yl)-2,6-difluoro-5-(trifluoromethyl)phenol] | < 100
CCn1nc(-c2cc(C(F)(F)F)c(F)c(O)c2F)c2cnc(N3CCOCC34CC4)cc21 [Compound 9.37, 3-(1-Ethyl-6-(7-oxa-4-azaspiro[2.5]octan-4-yl)-1H-pyrazolo[4,3-c]pyridin-3-yl)-2,6-difluoro-5-(trifluoromethyl)phenol] | < 100
O=C(NC1CC1)c1ccc2oc(-c3cc(O)c(F)c(F)c3)nc2c1 [Compound 1.01, N-Cyclopropyl-2-(3,4-difluoro-5-hydroxyphenyl)benzo[d]oxazole-5-carboxamide] | 1000 to 30000
CN(c1ncc2c(-c3cc(C(F)(F)F)c(F)c(O)c3F)nn(C)c2n1)C1CCNCC1 [Compound 19, 2,6-Difluoro-3-(1-methyl-6-(methyl(piperidin-4-yl)amino)-1H-pyrazolo[3,4-d]pyrimidin-3-y1)-5-(trifluoromethyl)phenol] | 100 to 1000
CS(=O)(=O)N1CCN(c2ccc3oc(-c4cc(O)c(F)c(F)c4)nc3c2)CC1 [Compound 5.02, 2,3-Difluoro-5-(5-(4-(methylsulfonyl)piperazin-1-yl)benzo[d]oxazol-2-yl)phenol] | 100 to 1000
